The text below walks through data of US8492582B2, “N-acyl anthranilic acid derivative or salt thereof” (Toyama Chemical Co., Ltd., priority 2009, dated 2013).

Data set [1] deals with type I collagen α1 chain mRNA in WI-38 cells. The data set is described as follows: Type I collagen α1 chain mRNA expression inhibition test. Type of data set: cell-based. To be noted: Homo sapiens, read-out: Inhibition rate (%) at 10 μmol/L. Summed up:
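Subconfluent WI-38 cells in DMEM with 0.4% FCS and 50 μg/mL ascorbic acid were given compound 1 h before TGF-β1 (1 ng/mL final). After 24 h, COL1A1 mRNA was quantified by SYBR real-time RT-PCR, normalised to GAPDH, and expressed relative to compound-free control (100%).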

The subject of data set [2] is bleomycin-induced lung fibrosis (lung collagen amount). The data set is described as follows: Mouse bleomycin-induced lung fibrosis. Type of data set: in vivo, mice C57BL/6N. To be noted: po, 672 h, read-out: lung collagen amount low compared with that of the control group. The method, then:
The test was conducted using 8- to 10.5-week-old male mice C57BL/6N (Charles River Laboratories Japan, Inc.). Bleomycin (Nippon Kayaku Co., Ltd.) was dissolved in physiological saline in a concentration of 1.0 or 1.5 mg/mL, and 2 μL/g thereof was intranasally administered to each mouse to evoke lung fibrosis. A test compound was dissolved or suspended in a 10% aqueous solution of polyoxyethylene castor oil (trade name: Cremophor EL) or in water and orally administered in an amount of 10 mg/kg twice a day from the 14th to the 28th day from the evocation. In a control group, a 10% aqueous solution of polyoxyethylene castor oil or water was administered in the same manner. The lung was extracted from each mouse on the 28th day from the evocation, and collagen was quantitatively measured. The extracted lung was homogenized in a 0.5 mol/L aqueous solution of acetic acid containing a protease inhibitor cocktail (Complete, EDTA-free, Roche Diagnostics) in an amount of one tablet/50 mL, and water-soluble collagen was extracted in the presence of 10 mg/mL pepsin (Sigma) overnight. The amount of collagen was measured using a kit (Sircol Soluble Collagen assay kit, Biocolor).
The inhibition rate was determined by the following expression: Inhibition rate (%)=[1−(lung collagen amount in test compound administration group)/(lung collagen amount in control group)]×100

Another data set relates to SD-line male rats. Description: Repeated administration toxicity test in rat (oral administration, two weeks). To be noted: 1000 mg/kg, 5 rats per group, 80a and 1b as sodium salts. The format is in vivo. The protocol: As test compounds, the compounds of Examples 80a, 122a, 139a, 1b, 16b, and 19b were used. Note that the compounds of Examples 80a and 1b were used in the forms of sodium salts.
Each test compound was suspended in a 0.5% methylcellulose solution or distilled water to prepare a 100 mg/mL suspension. The suspension of the test compound was orally administered (10 mL/kg, test compound: 1000 mg/kg) to SD-line male rats (6-week-old, 5 rats for each group).

Another data set concerns the target T1, CYP2C9 (Homo sapiens, UniProt P11712).
T1 construct: Pooled human liver microsome was used, and tolbutamide was used as a substrate; from tissue; host or cells: pooled human liver microsomes
Description: Hepatic drug-metabolizing enzyme inhibitory activity in humans (CYP2C9). The format is in vitro ADME. Particulars: pooled human liver microsome, tolbutamide 200 μmol/L, 37° C., 30 minutes; 80a as free base; read-out: IC50 (CYP2C9, tolbutamide metabolite). The method, then:
As test compounds, the compounds of Examples 80a, 83a, 108a, 117a, 123a, 128a, 139a, 142a, and 143a were used. Note that the compound of Example 80a was used in the form of free base.
Pooled human liver microsome was used, and tolbutamide was used as a substrate. The reaction was performed in a phosphate buffer (100 mmol/L, pH 7.4), and the final concentrations in the reaction system were adjusted to 0.5 mg/mL of human liver microsome protein, 200 μmol/L of the substrate, 1.55 mmol/L of oxidized nicotinamide adenine dinucleotide phosphate (NADP+), 3.3 mmol/L of glucose-6-phosphate, 3.3 mmol/L of magnesium chloride, and 0.4 Units/mL of glucose-6-phosphate dehydrogenase (G6PDH). The final concentration of each compound in the reaction solution was adjusted to 0.08 to 50 μg/mL. These reaction solutions were each subjected to reaction at 37° C. for 30 minutes. The reaction was terminated with an equal amount of acetonitrile. After centrifugation, the concentration of a tolbutamide metabolite in the supernatant was quantitatively measured by LC-MS/MS. The inhibitory activity was determined as IC50. As a positive control, sulfaphenazole was used.

For data set [3] the following is noted: side effect, clinical, Non Patent Document 3; cited from earlier work.
[4] abbreviates: 10 μmol/L test compound, WI-38 cells, TGF-β1 1 ng/mL, 24 hours, Table 4b.
[5] abbreviates: orally 10 mg/kg twice a day, 14th to 28th day, lung on 28th day, 23a, 1b, 7c as sodium salts, 122a, 143a as hydrochloric acid salts.

Where a name gives a salt, the structure may show the parent alone. Read-outs that look alike come from different tables or passages of the source.

T1 sequence (P11712 whole entry): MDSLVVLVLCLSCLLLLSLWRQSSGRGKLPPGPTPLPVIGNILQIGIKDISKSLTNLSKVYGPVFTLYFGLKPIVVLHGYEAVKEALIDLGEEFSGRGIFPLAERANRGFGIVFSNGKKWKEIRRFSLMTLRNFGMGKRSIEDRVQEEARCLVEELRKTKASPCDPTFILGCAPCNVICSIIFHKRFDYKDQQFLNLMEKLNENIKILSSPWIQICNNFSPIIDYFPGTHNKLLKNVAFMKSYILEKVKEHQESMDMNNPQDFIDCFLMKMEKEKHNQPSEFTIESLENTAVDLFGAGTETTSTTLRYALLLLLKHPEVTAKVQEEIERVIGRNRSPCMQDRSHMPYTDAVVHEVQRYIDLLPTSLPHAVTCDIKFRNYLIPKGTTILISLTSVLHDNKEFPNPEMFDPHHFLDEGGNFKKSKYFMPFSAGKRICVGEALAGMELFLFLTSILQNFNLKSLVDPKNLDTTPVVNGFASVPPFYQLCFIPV

Turning to `O=C(Nc1cc(-c2ccccc2)ccc1C(=O)O)c1cncc(-c2ccccc2)c1` [1b, 4-phenyl-2-(5-phenylpyridine-3-carboxamido)benzoic acid], the inhibition at 10 µM in data set [1] (setting [4]) turned out to be 72%. For the same compound, in data set [2] (setting [5]), the inhibition in vivo at 10 mg/kg was at least 30%. Further, the “survival on the 14th day from the administration” value (from here on “survival on the 14th day”) with SD-line male rats is given as “all rats survived”.
On to `CCNc1ccccc1-c1ccc(C(=O)[O-])c(NC(=O)c2cncc(-c3ccccc3)c2)c1.[Na+]` [16b, sodium 4-(2-(ethylamino)phenyl)-2-(5-phenylpyridine-3-carboxamido)benzoate], for which, in data set [1] (setting [4]), the inhibition at 10 µM was 84%. Moreover, in data set [2] (setting [5]), the inhibition in vivo at 10 mg/kg was at least 30%. Further, in the data set on SD-line male rats, the “survival on the 14th day” value was “all rats survived”.
The like results for `O=C(Nc1cc(-c2ccco2)ccc1C(=O)[O-])c1cncc(-c2ccccc2)c1.[Na+]` [19b, sodium 4-(furan-2-yl)-2-(5-phenylpyridine-3-carboxamido)benzoate] were, in that order, 90%, at least 30% and “all rats survived”.
On to `O=C(Nc1cc(-c2ccccc2)ccc1C(=O)O)c1cc(N2CCCCC2)ccc1O` [Example 80a, 2-(2-hydroxy-5-(piperidin-1-yl)benzamido)-4-phenylbenzoic acid hydrochloride], for which the inhibition at 10 µM in data set [1] (WI-38, 24 h) is 95%. Besides, in data set [2], the inhibition in vivo at 10 mg/kg is at least 30%. Moreover, in the data set on SD-line male rats, the “survival on the 14th day” value is “all rats survived”. Moreover, at CYP2C9, the IC50 was over 120 µM.
For the compound `CN1CCN(Cc2ccc(O)c(C(=O)Nc3cc(-c4ccccc4)ccc3C(=O)O)c2)CC1` [Example 122a, 2-(2-hydroxy-5-((4-methylpiperazin-1-yl)methyl)benzamido)-4-phenylbenzoic acid dimethanesulfonate], the inhibition at 10 µM in data set [1] (10 μmol/L test compound, WI-38 cells, TGF-β1 1 ng/mL, 24 hours, Table 4a) is 88%. Moreover, the inhibition in vivo at 10 mg/kg in data set [2] (setting [5]) was at least 30%. Also, the “survival on the 14th day” value in the data set on SD-line male rats was “all rats survived”.
For `O=C(Nc1cc(-c2ccccc2)ccc1C(=O)O)c1cc(OCCN2CCOCC2)ccc1O` [Example 139a, 2-(2-hydroxy-5-(2-(morpholin-4-yl)ethoxy)benzamido)-4-phenylbenzoic acid hydrochloride], in data set [1] (WI-38, 24 h), the inhibition at 10 µM came to 85%. Also, in the data set on SD-line male rats, the “survival on the 14th day” value was “all rats survived”. For the same compound, the IC50 on CYP2C9 was over 108 µM.
For `Cc1ccc(=O)n(-c2ccccc2)c1` [pirfenidone, Pirfenidone], the photosensitivity in subjects in data set [3] is 87.9%.

What is called IC50 is the midpoint of a concentration-inhibition curve.
